Source: PubChem BioAssay AID1963983 (Molecular Pharmacology Branch, DTP, NCI, 2024)
pIC50: −log10 of the molar value. Each block holds one compound with its values, some of them ahead of it.

Test system: 186277-243-T-J2-PDC multi-cell spheroid viability
Test: Anticancer human tumor 186277-243-T-J2-PDC patient-derived colon adenocarcinoma cell line growth inhibition [PI3K]
Settings: for pIC50: curve of first compound; for viability, T/C: stronger effect = lower value
How it was run: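 Combination activity was assessed by viability in multicellular tumor spheroids carrying HUVEC and MSC components. Agents were tested with PI3K inhibitors from a Cmax-based top dose (or 10 microM) downward in half-log increments.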

[1] = second compound 0.0316 µM, first compound 0.0316 µM
[2] = second compound 0.0316 µM, first compound 0.1 µM
[3] = second compound 0.0316 µM, first compound 0.316 µM
[4] = second compound 0.0316 µM, first compound 1 µM
[5] = second compound 0.0316 µM, first compound 3.16 µM
[6] = second compound 0.0316 µM, first compound 10 µM
[7] = second compound 0.1 µM, first compound 0.0316 µM
[8] = second compound 0.1 µM, first compound 0.1 µM
[9] = second compound 0.1 µM, first compound 0.316 µM
[10] = second compound 0.1 µM, first compound 1 µM
[11] = second compound 0.1 µM, first compound 3.16 µM
[12] = second compound 0.1 µM, first compound 10 µM
[13] = second compound 0.316 µM, first compound 0.0316 µM
[14] = second compound 0.316 µM, first compound 0.1 µM
[15] = second compound 0.316 µM, first compound 0.316 µM
[16] = second compound 0.316 µM, first compound 1 µM
[17] = second compound 0.316 µM, first compound 3.16 µM
[18] = second compound 0.316 µM, first compound 10 µM
[19] = second compound 1 µM, first compound 0.0316 µM
[20] = second compound 1 µM, first compound 0.1 µM
[21] = second compound 1 µM, first compound 0.316 µM
[22] = second compound 1 µM, first compound 1 µM
[23] = second compound 1 µM, first compound 3.16 µM
[24] = second compound 1 µM, first compound 10 µM
[25] = second compound 3.16 µM, first compound 0.0316 µM
[26] = second compound 3.16 µM, first compound 0.1 µM
[27] = second compound 3.16 µM, first compound 0.316 µM
[28] = second compound 3.16 µM, first compound 1 µM
[29] = second compound 3.16 µM, first compound 3.16 µM
[30] = second compound 3.16 µM, first compound 10 µM
[31] = second compound 10 µM, first compound 0.0316 µM
[32] = second compound 10 µM, first compound 0.1 µM
[33] = second compound 10 µM, first compound 0.316 µM
[34] = second compound 10 µM, first compound 1 µM
[35] = second compound 10 µM, first compound 3.16 µM
[36] = second compound 10 µM, first compound 10 µM
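Also: spheroids exposed to compounds for seven days before viability reading.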
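For viability, T/C in this document: 100% = DMSO vehicle control viability.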

pIC50 (second compound 0.00316 µM): < 5.00
pIC50 (second compound 0.01 µM): < 5.00
pIC50 (second compound 0.0316 µM): < 5.00
pIC50 (second compound 0.1 µM): < 5.00
pIC50 (second compound 0.316 µM): < 5.00
pIC50 (second compound 1 µM): > 7.50
Structure (SMILES): CC(Cn1ccc(-c2ccc(C#N)c(Cl)c2)n1)NC(=O)c1cc(C(C)O)[nH]n1 (stereo unspecified) + CC(Nc1ccc2c(c1)OCCn1cc(N3C(=O)OCC3C(F)F)nc1-2)C(N)=O
viability, T/C (second compound 0.00316 µM, first compound 0.0316 µM): 97.8%
viability, T/C (second compound 0.00316 µM, first compound 0.1 µM): 97%
viability, T/C (second compound 0.00316 µM, first compound 0.316 µM): 91.3%
viability, T/C (second compound 0.00316 µM, first compound 1 µM): 84.9%
viability, T/C (second compound 0.00316 µM, first compound 3.16 µM): 93.6%
viability, T/C (second compound 0.00316 µM, first compound 10 µM): 102%
viability, T/C (second compound 0.01 µM, first compound 0.0316 µM): 101%
viability, T/C (second compound 0.01 µM, first compound 0.1 µM): 93.2%
viability, T/C (second compound 0.01 µM, first compound 0.316 µM): 95.6%
viability, T/C (second compound 0.01 µM, first compound 1 µM): 91.6%
viability, T/C (second compound 0.01 µM, first compound 3.16 µM): 108%
viability, T/C (second compound 0.01 µM, first compound 10 µM): 91.7%
viability, T/C [1]: 106%
viability, T/C [2]: 95.3%
viability, T/C [3]: 102%
viability, T/C [4]: 111%
viability, T/C [5]: 111%
viability, T/C [6]: 95.5%
viability, T/C [7]: 104%
viability, T/C [8]: 107%
viability, T/C [9]: 101%
viability, T/C [10]: 90.1%
viability, T/C [11]: 88.8%
viability, T/C [12]: 74.4%
viability, T/C [13]: 81.3%
viability, T/C [14]: 82%
viability, T/C [15]: 74.6%
viability, T/C [16]: 73%
viability, T/C [17]: 67.7%
viability, T/C [18]: 57.7%
viability, T/C [19]: 47.7%
viability, T/C [20]: 45.9%
viability, T/C [21]: 44.9%
viability, T/C [22]: 45.6%
viability, T/C [23]: 44%
viability, T/C [24]: 35.4%

pIC50 (second compound 0.0316 µM): 5.24
pIC50 (second compound 0.1 µM): 5.30
pIC50 (second compound 0.316 µM): 5.30
pIC50 (second compound 1 µM): 5.28
pIC50 (second compound 3.16 µM): 5.28
pIC50 (second compound 10 µM): 5.26
Structure (SMILES): CCCS(=O)(=O)Nc1ccc(F)c(C(=O)c2c[nH]c3ncc(-c4ccc(Cl)cc4)cc23)c1F + CC(Nc1ncnc2nc[nH]c12)c1cc2cccc(Cl)c2c(=O)n1-c1ccccc1
viability, T/C [1]: 85.8%
viability, T/C [2]: 96.6%
viability, T/C [3]: 105%
viability, T/C [4]: 85.6%
viability, T/C [5]: 96.5%
viability, T/C [6]: 7.89%
viability, T/C [7]: 97.5%
viability, T/C [8]: 103%
viability, T/C [9]: 93.2%
viability, T/C [10]: 77.8%
viability, T/C [11]: 83.7%
viability, T/C [12]: 7.36%
viability, T/C [13]: 97.3%
viability, T/C [14]: 109%
viability, T/C [15]: 87%
viability, T/C [16]: 94.5%
viability, T/C [17]: 76.5%
viability, T/C [18]: 10.1%
viability, T/C [19]: 86.7%
viability, T/C [20]: 98.1%
viability, T/C [21]: 95.5%
viability, T/C [22]: 94%
viability, T/C [23]: 82.3%
viability, T/C [24]: 7.72%
viability, T/C [25]: 113%
viability, T/C [26]: 94.6%
viability, T/C [27]: 90.6%
viability, T/C [28]: 91%
viability, T/C [29]: 84.8%
viability, T/C [30]: 9.36%
viability, T/C [31]: 108%
viability, T/C [32]: 104%
viability, T/C [33]: 106%
viability, T/C [34]: 105%
viability, T/C [35]: 87.6%
viability, T/C [36]: 8.89%

pIC50 (second compound 0.0316 µM): 7.13
pIC50 (second compound 0.1 µM): 7.33
pIC50 (second compound 0.316 µM): > 7.50
pIC50 (second compound 1 µM): > 7.50
pIC50 (second compound 3.16 µM): > 7.50
pIC50 (second compound 10 µM): > 7.50
Structure (SMILES): C#Cc1c(F)ccc2cc(O)cc(-c3ncc4c(N5CC6CCC(C5)N6)nc(OCC56CCCN5CC(F)C6)nc4c3F)c12 (stereo unspecified) + Cc1nc(NC(=O)N2CCCC2C(N)=O)sc1-c1ccnc(C(C)(C)C(F)(F)F)c1
viability, T/C [1]: 84.8%
viability, T/C [2]: 37.5%
viability, T/C [3]: 20%
viability, T/C [4]: 13.5%
viability, T/C [5]: 10.9%
viability, T/C [6]: 9.63%
viability, T/C [7]: 60.6%
viability, T/C [8]: 29.4%
viability, T/C [9]: 15.1%
viability, T/C [10]: 11.4%
viability, T/C [11]: 8.35%
viability, T/C [12]: 7.01%
viability, T/C [13]: 30.4%
viability, T/C [14]: 15.5%
viability, T/C [15]: 7.34%
viability, T/C [16]: 12.6%
viability, T/C [17]: 6.32%
viability, T/C [18]: 6.56%
viability, T/C [19]: 17.2%
viability, T/C [20]: 9.55%
viability, T/C [21]: 10.3%
viability, T/C [22]: 6.06%
viability, T/C [23]: 4.61%
viability, T/C [24]: 1.79%
viability, T/C [25]: 12.9%
viability, T/C [26]: 5.57%
viability, T/C [27]: 3.63%
viability, T/C [28]: 4.54%
viability, T/C [29]: 3.29%
viability, T/C [30]: 1.25%
viability, T/C [31]: 3.63%
viability, T/C [32]: 3.77%
viability, T/C [33]: 2.79%
viability, T/C [34]: 2%
viability, T/C [35]: 0.83%
viability, T/C [36]: 0.22%
